From ChEMBL document CHEMBL1144730, “Novel antibacterial azetidine lincosamides” (Bioorg Med Chem Lett, 2008)
≈ marks a conversion by molar mass, not a printed value.

Legend:
Assay type in all cases: functional
Streptococcus pneumoniae = test: Antibacterial activity against Streptococcus pneumoniae by broth microdilution method
Enterococcus faecium = test: Antibacterial activity against Enterococcus faecium by broth microdilution method
Staphylococcus aureus [1] = test: Antibacterial activity against Staphylococcus aureus by broth microdilution method
Staphylococcus aureus [2] = test: Antibacterial activity against macrolide, licosamide and streptogramin resistant Staphylococcus aureus by broth microdilution method
Enterococcus faecalis = test: Antibacterial activity against Enterococcus faecalis by broth microdilution method
Bacteroides fragilis = test: Antibacterial activity against Bacteroides fragilis by broth microdilution method
Escherichia coli = test: Inhibition of protein synthesis in Escherichia coli by transcription/translation inhibition assay
Staphylococcus aureus [3] = test: Antibacterial activity against Staphylococcus aureus Smith infected iv dosed mouse septicemia model
Staphylococcus aureus [4] = test: Antibacterial activity against Staphylococcus aureus Smith infected po dosed mouse septicemia model

| Compound | MIC (Streptococcus pneumoniae) [µg/mL] | MIC (Enterococcus faecium) [µg/mL] | MIC (Staphylococcus aureus [1]) [µg/mL] | MIC (Staphylococcus aureus [2]) [µg/mL] | MIC (Enterococcus faecalis) [µg/mL] | MIC (Bacteroides fragilis) [µg/mL] | IC50 (Escherichia coli) [µM] | ED50 (Staphylococcus aureus [3]) [mg/kg] | ED50 (Staphylococcus aureus [4]) [mg/kg] |
| --- | --- | --- | --- | --- | --- | --- | --- | --- | --- |
| CS[C@H]1O[C@H]([C@H](NC(=O)[C@H]2NC[C@@H]2CCC(F)F)[C@H](C)Cl)[C@H](O)[C@H](O)[C@H]1O | 0.125 (≈ 0.289 µM) | 0.5 (≈ 1.15 µM) | 1 (≈ 2.31 µM) | > 4 | 2 (≈ 4.62 µM) | 1 (≈ 2.31 µM) |  |  |  |
| CS[C@H]1O[C@H]([C@H](NC(=O)[C@H]2NC[C@@H]2CCC2CCC2)[C@H](C)Cl)[C@H](O)[C@H](O)[C@H]1O | 0.125 (≈ 0.286 µM) | 0.25 (≈ 0.572 µM) | 0.25 (≈ 0.572 µM) | > 4 | 0.25 (≈ 0.572 µM) | 0.25 (≈ 0.572 µM) |  |  |  |
| CS[C@H]1O[C@H]([C@H](NC(=O)[C@H]2NC[C@@H]2CCC2CC2)[C@H](C)Cl)[C@H](O)[C@H](O)[C@H]1O | 0.125 (≈ 0.296 µM) | 0.125 (≈ 0.296 µM) | 0.25 (≈ 0.591 µM) | > 4 | 0.25 (≈ 0.591 µM) | 0.25 (≈ 0.591 µM) | 7.8 | 3 |  |
| CCCC[C@H]1CN(CCO)[C@@H]1C(=O)N[C@@H]([C@H]1O[C@H](SC)[C@H](O)[C@@H](O)[C@H]1O)[C@H](C)Cl | 0.125 (≈ 0.275 µM) | 0.25 (≈ 0.549 µM) | 0.5 (≈ 1.1 µM) | > 8 | 0.5 (≈ 1.1 µM) | 0.5 (≈ 1.1 µM) |  |  |  |
| CS[C@H]1O[C@H]([C@H](NC(=O)[C@H]2NC[C@@H]2CCCC2CC2)[C@H](C)Cl)[C@H](O)[C@H](O)[C@H]1O | 0.06 (≈ 0.137 µM) | 0.125 (≈ 0.286 µM) | 0.125 (≈ 0.286 µM) | > 4 | 0.25 (≈ 0.572 µM) | 0.25 (≈ 0.572 µM) | 2.75 | 3.1 |  |
| CCCC[C@H]1CN(C)[C@@H]1C(=O)N[C@@H]([C@H]1O[C@H](SC)[C@H](O)[C@@H](O)[C@H]1O)[C@H](C)Cl | 0.5 (≈ 1.18 µM) | 1 (≈ 2.35 µM) | 1 (≈ 2.35 µM) | > 4 | 2 (≈ 4.71 µM) | 0.125 (≈ 0.294 µM) |  |  |  |
| CCC[C@H]1CN[C@@H]1C(=O)N[C@@H]([C@H]1O[C@H](SC)[C@H](O)[C@@H](O)[C@H]1O)[C@H](C)Cl | 0.125 (≈ 0.315 µM) | 0.5 (≈ 1.26 µM) | 0.5 (≈ 1.26 µM) | > 8 | 0.5 (≈ 1.26 µM) | 0.5 (≈ 1.26 µM) | 12.8 |  |  |
| CCCCC[C@H]1CN[C@@H]1C(=O)N[C@@H]([C@H]1O[C@H](SC)[C@H](O)[C@@H](O)[C@H]1O)[C@H](C)Cl | 0.03 (≈ 0.0706 µM) | 0.125 (≈ 0.294 µM) | 0.06 (≈ 0.141 µM) | > 8 | 0.25 (≈ 0.588 µM) | 0.125 (≈ 0.294 µM) | 1.13 | 1.7 | 28 |
| CS[C@H]1O[C@H]([C@H](NC(=O)[C@H]2NC[C@@H]2CC2CC2)[C@H](C)Cl)[C@H](O)[C@H](O)[C@H]1O | 0.125 (≈ 0.306 µM) | 0.5 (≈ 1.22 µM) | 0.5 (≈ 1.22 µM) | > 8 | 1 (≈ 2.45 µM) | 0.5 (≈ 1.22 µM) | 11.1 |  |  |
| CS[C@H]1O[C@H]([C@H](NC(=O)[C@H]2NC[C@@H]2CCCC2CCC2)[C@H](C)Cl)[C@H](O)[C@H](O)[C@H]1O | 0.016 (≈ 0.0355 µM) | 0.06 (≈ 0.133 µM) | 0.03 (≈ 0.0665 µM) | > 4 | 0.06 (≈ 0.133 µM) | 0.25 (≈ 0.554 µM) | 2.44 | > 10 |  |
| CCCC[C@H]1CN[C@@H]1C(=O)N[C@@H]([C@H]1O[C@H](SC)[C@H](O)[C@@H](O)[C@H]1O)[C@H](C)Cl | 0.06 (≈ 0.146 µM) | 0.125 (≈ 0.304 µM) | 0.125 (≈ 0.304 µM) | > 8 | 0.125 (≈ 0.304 µM) | 0.125 (≈ 0.304 µM) | 0.36 | 1.1 | 10.8 |
| CS[C@H]1O[C@H]([C@H](NC(=O)[C@H]2NC[C@@H]2CCC(C)C)[C@H](C)Cl)[C@H](O)[C@H](O)[C@H]1O | 0.125 (≈ 0.294 µM) | 0.5 (≈ 1.18 µM) | 0.5 (≈ 1.18 µM) | > 8 | 0.5 (≈ 1.18 µM) | 0.5 (≈ 1.18 µM) | 15.5 |  |  |
| CCC[C@@H]1C[C@@H](C(=O)N[C@@H]([C@H]2O[C@H](SC)[C@H](O)[C@@H](O)[C@H]2O)[C@H](C)Cl)N(C)C1 [CLINDAMYCIN] | 0.06 (≈ 0.141 µM) | 0.125 (≈ 0.294 µM) | 0.125 (≈ 0.294 µM) | > 8 | 0.25 (≈ 0.588 µM) |  |  | 2.8 | 19.9 |
